From patent US9936701B2, “Herbicidal compounds” (Syngenta Participations AG, priority 2013, dated 2018)

What was measured:
[1] = test system: a variety of test species; assay: Post-emergence herbicidal activity (glasshouse, sprayed after 8 days cultivation, evaluated after 13 days); format: in vivo; design: key: 5=total damage to plant; 0=no damage to plant; conditions: rate 1000 g/Ha, scale 0-5
How it was run: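 Visual herbicidal injury (0 = no damage, 5 = plant killed) recorded 13 days post-treatment. Treatment consisted of a single spray onto emerged seedlings at day 8; conditions before and after were 24/16 °C, 14 h light, 65% humidity.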

[2] = test system: a variety of test species; assay: Pre-emergence herbicidal activity (glasshouse, sprayed one day after sowing, evaluated after 13 days); format: in vivo; design: key: 5=total damage to plant; 0=no damage to plant; conditions: application pre-emergence, rate 1000 g/Ha, scale 0-5
How it was run: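 Pre-emergence spray, one day post-sowing; vehicle acetone/water (50:50) + 0.5% Tween 20, aqueous dilution. Glasshouse 24/16 °C, 14 h light, 65% RH, watering twice daily. Score at 13 d on 0–5 scale, 5 = total damage.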

Structure (SMILES) | ALOMY (Alopecurus myosuroides) damage score, application post-emergence [1] | AMARE (Amaranthus retroflexus) damage score, application post-emergence [1] | ECHCG (Echinochloa crus-galli) damage score, application post-emergence [1] | SETFA (Setaria faberi) damage score, application post-emergence [1] | Pre-emergence herbicidal damage score, ALOMY [2] | Pre-emergence herbicidal damage score, AMARE [2] | Pre-emergence herbicidal damage score, ECHCG [2] | Pre-emergence herbicidal damage score, SETFA [2] | melting point [°C] | ABUTH (Abutilon theophrasti) damage score, application post-emergence [1] | ZEAMX (Zea mays) damage score, application post-emergence [1] | Pre-emergence herbicidal damage score, ABUTH [2] | Pre-emergence herbicidal damage score, ZEAMX [2]
CC1=C(Cl)C(=O)N(c2noc(C(C)(C)C)c2C)C1O (stereo not shown) [A20, 1-(5-tert-butyl-4-methyl-isoxazol-3-yl)-4-chloro-2-hydroxy-3-methyl-2H-pyrrol-5-one] | 5 | 4 | 5 | 5 | 4 | 1 | 5 | 5 | 134 to 136 |  |  |  | 
CC1=C(Cl)C(=O)N(c2cc(C3CCC3)on2)C1O (stereo not shown) [A21] | 5 | 5 | 5 | 5 | 3 | 5 | 5 | 3 | 130 to 132 |  |  |  | 
CC1=C(Cl)C(=O)N(c2cc(C3CC3)on2)C1O (stereo not shown) [A22] | 5 | 5 | 5 | 5 | 4 | 4 | 5 | 5 | 174 to 176 | 5 | 4 | 5 | 1
CC1=C(Cl)C(=O)N(c2noc(C(C)(C)C)c2Br)C1O (stereo not shown) [A23, 1-(4-bromo-5-tert-butyl-isoxazol-3-yl)-4-chloro-2-hydroxy-3-methyl-2H-pyrrol-5-one] | 5 | 5 | 5 | 5 | 4 | 5 | 5 | 3 | 158 to 160 | 5 | 4 | 5 | 3
CC1=C(Cl)C(=O)N(c2noc(C(C)(C)C)c2Cl)C1O (stereo not shown) [A24] | 5 | 5 | 5 | 5 | 4 | 4 | 5 | 4 | 143 to 145 | 5 | 4 | 5 | 2
CC1=C(Cl)C(=O)N(c2cc(C3CCCCC3)on2)C1O (stereo not shown) [A25] | 3 | 4 | 4 | 5 | 2 | 5 | 2 | 0 | 141 to 143 | 5 | 1 | 3 | 0
CC1=C(Cl)C(=O)N(c2cc(C3(C)CC3)on2)C1O (stereo not shown) [A26] | 4 | 5 | 5 | 5 | 4 | 5 | 5 | 5 | 177 to 178 | 5 | 5 | 5 | 3
C=CCC(C)(C)c1cc(N2C(=O)C(Cl)=C(C)C2O)no1 (stereo not shown) [A28] | 5 | 5 | 5 | 5 | 4 | 5 | 5 | 4 | 107 to 109 | 5 | 4 | 5 | 2
CCC(C)(C)c1cc(N2C(=O)C(Cl)=C(C)C2O)no1 (stereo not shown) [A29] | 4 | 5 | 5 | 4 | 3 | 5 | 5 | 4 | 103 to 105 | 5 | 3 | 5 | 1
